The source of these data is ChEMBL document CHEMBL3217552, “Novel benzothiazole derivatives with a broad antifungal spectrum: design, synthesis and structureactivity relationships” (2013).

The subject of one assay is Nannizzia gypsea. The assay can be described thus: Antifungal activity against Microsporum gypseum after 72 hrs by serial dilution method. The class given is functional.
The test system of a further assay is Candida parapsilosis. As to the kind of experiment: Antifungal activity against Candida parapsilosis after 24 hrs by serial dilution method. The class given is functional. To be noted: Lodderomyces parapsilosis.
In the next assay the test system is Cryptococcus neoformans. The assay can be described thus: Antifungal activity against Cryptococcus neoformans after 72 hrs by serial dilution method. The class given is functional.
For assay [1], the system named is Candida albicans. The assay can be described thus: Antifungal activity against Candida albicans after 24 hrs by serial dilution method. The class given is functional.
The test system of the next assay is Nakaseomyces glabratus. As to the kind of experiment: Antifungal activity against Candida glabrata after 24 hrs by serial dilution method. The class given is functional.
In a further assay the test system is Trichophyton rubrum. As to the kind of experiment: Antifungal activity against Trichophyton rubrum after 72 hrs by serial dilution method. The class given is functional.
In assay [2] the test system is Candida albicans. As to the kind of experiment: Antifungal activity against Candida albicans SC5314 infected in Caenorhabditis elegans assessed as nematode survival at 32 ug/ml after 144 hrs by serial dilution method. The assay is classed as functional, organism-based.
The subject of assay [3] is Candida albicans. The assay can be described thus: Antifungal activity against Candida albicans SC5314 infected in Caenorhabditis elegans assessed as nematode survival at 16 ug/ml after 144 hrs by serial dilution method. To be noted: SC5314, 144 h. The class given is functional.

Values after ≈ are worked out from the molar mass of the structure shown. Active and inactive are the calls of the source. No cut-off for these calls is given here. Some results are limits rather than exact numbers.

For orientation: MIC80 means the lowest concentration that inhibits either 80% of growth or 80% of the strains tested, depending on the study. With `O=C(Nc1nc2ccc(NC(=O)[C@@H]3CCC[C@H](NCc4cccc5cccnc45)C3)cc2s1)C1CCCC1` (relative stereo), the MIC80 against Nannizzia gypsea, against Candida parapsilosis, in the assay on Cryptococcus neoformans, against Candida albicans [1], against Nakaseomyces glabratus and against Trichophyton rubrum was greater than 64 µg/mL throughout.
On to `O=C(Nc1nc2ccc(NC(=O)[C@@H]3CCC[C@H](NCc4ccc5ccccc5c4Br)C3)cc2s1)C1CCCC1` (relative stereo), for which the MIC80 with Nannizzia gypsea was 64 µg/mL (≈ 106 µM); against Candida parapsilosis it was greater than 64 µg/mL; in the assay with Cryptococcus neoformans, greater than 64 µg/mL; in the assay with Candida albicans [1] it was greater than 64 µg/mL; in the assay on Nakaseomyces glabratus, greater than 64 µg/mL; with Trichophyton rubrum, 64 µg/mL (≈ 106 µM).
`COc1ccc2cc(CN[C@H]3CCC[C@@H](C(=O)Nc4ccc5nc(NC(=O)C6CCCC6)sc5c4)C3)ccc2c1` (relative stereo): the MIC80 in the assay on Nannizzia gypsea, in the assay on Candida parapsilosis, against Cryptococcus neoformans, against Candida albicans [1], with Nakaseomyces glabratus and in the assay with Trichophyton rubrum was greater than 64 µg/mL in each case.
Turning to `O=C(Nc1ccc2nc(NC(=O)[C@@H]3CCC[C@H](NCc4cnc5ccccc5c4)C3)sc2c1)C1CCCC1` (relative stereo), the MIC80 with Nannizzia gypsea is 64 µg/mL (≈ 121 µM); in the assay with Candida parapsilosis, greater than 64 µg/mL; in the assay on Cryptococcus neoformans it was greater than 64 µg/mL; in the assay with Candida albicans [1], greater than 64 µg/mL; against Nakaseomyces glabratus, greater than 64 µg/mL; in the assay on Trichophyton rubrum it was greater than 64 µg/mL.
As for `COc1ccc2ccccc2c1CN[C@H]1CCC[C@@H](C(=O)Nc2ccc3nc(NC(=O)C4CCCC4)sc3c2)C1` (relative stereo), the MIC80 with Nannizzia gypsea is 64 µg/mL (≈ 115 µM); in the assay with Candida parapsilosis, greater than 64 µg/mL; against Cryptococcus neoformans, greater than 64 µg/mL; against Candida albicans [1] it was greater than 64 µg/mL; against Nakaseomyces glabratus, greater than 64 µg/mL; against Trichophyton rubrum, 64 µg/mL (≈ 115 µM).
`CCOc1ccc2ccccc2c1CN[C@H]1CCC[C@@H](C(=O)Nc2ccc3nc(NC(=O)C4CCCC4)sc3c2)C1` (relative stereo): the MIC80 in the assay with Nannizzia gypsea was 64 µg/mL (≈ 112 µM); in the assay with Candida parapsilosis, greater than 64 µg/mL; against Cryptococcus neoformans, greater than 64 µg/mL; with Candida albicans [1], greater than 64 µg/mL; against Nakaseomyces glabratus it was greater than 64 µg/mL; in the assay on Trichophyton rubrum, 64 µg/mL (≈ 112 µM).
In the case of `O=C(Nc1ccc2nc(NC(=O)[C@@H]3CCC[C@H](NCc4ccc5ccccc5c4)C3)sc2c1)C1CCCC1` (relative stereo), the MIC80 with Nannizzia gypsea is 32 µg/mL (≈ 60.8 µM); against Candida parapsilosis, greater than 64 µg/mL; in the assay with Cryptococcus neoformans it was 32 µg/mL (≈ 60.8 µM); with Candida albicans [1], 8 µg/mL (≈ 15.2 µM); in the assay with Nakaseomyces glabratus it was 16 µg/mL (≈ 30.4 µM); in the assay with Trichophyton rubrum, 32 µg/mL (≈ 60.8 µM).
Turning to `O=C(Nc1ccc2nc(NC(=O)[C@@H]3CCC[C@H](NCc4ccc5ccccc5n4)C3)sc2c1)C1CCCC1` (relative stereo), the MIC80 in the assay with Nannizzia gypsea was 64 µg/mL (≈ 121 µM); with Candida parapsilosis it was greater than 64 µg/mL; in the assay on Cryptococcus neoformans, greater than 64 µg/mL; against Candida albicans [1], greater than 64 µg/mL; against Nakaseomyces glabratus, greater than 64 µg/mL; with Trichophyton rubrum it was greater than 64 µg/mL.
Take `O=C(Nc1ccc2nc(NC(=O)[C@@H]3CCC[C@H](NCc4ccnc5ccccc45)C3)sc2c1)C1CCCC1` (relative stereo): the MIC80 was greater than 64 µg/mL in the assay on Nannizzia gypsea; greater than 64 µg/mL against Candida parapsilosis; 16 µg/mL (≈ 30.3 µM) against Cryptococcus neoformans; greater than 64 µg/mL in the assay on Candida albicans [1]; 16 µg/mL (≈ 30.3 µM) in the assay with Nakaseomyces glabratus; greater than 64 µg/mL against Trichophyton rubrum.
Turning to `O=C(Nc1nc2ccc(NC(=O)[C@@H]3CCC[C@H](NCc4ccc5ccccc5c4)C3)cc2o1)C1CCCC1` (relative stereo), the MIC80 was 1 µg/mL (≈ 1.96 µM) in the assay with Nannizzia gypsea; greater than 64 µg/mL in the assay with Candida parapsilosis; greater than 64 µg/mL against Cryptococcus neoformans; greater than 64 µg/mL in the assay with Candida albicans [1]; greater than 64 µg/mL with Nakaseomyces glabratus; greater than 64 µg/mL against Trichophyton rubrum.
Regarding `O=C(Nc1nc2ccc(NC(=O)[C@@H]3CCC[C@H](NCC4CCc5ncccc5C4)C3)cc2s1)C1CCCC1` (relative stereo), the MIC80 was greater than 64 µg/mL in the assay with Nannizzia gypsea; 64 µg/mL (≈ 120 µM) in the assay with Candida parapsilosis; greater than 64 µg/mL against Cryptococcus neoformans; 16 µg/mL (≈ 30.1 µM) against Candida albicans [1]; greater than 64 µg/mL against Nakaseomyces glabratus; greater than 64 µg/mL with Trichophyton rubrum.
Consider `O=C(Nc1nc2ccc(NC(=O)[C@@H]3CCC[C@H](NCc4ccnc5ccccc45)C3)cc2s1)C1CCCC1` (relative stereo), for which the MIC80 is 16 µg/mL (≈ 30.3 µM) in the assay with Nannizzia gypsea; greater than 64 µg/mL with Candida parapsilosis; greater than 64 µg/mL in the assay with Cryptococcus neoformans; greater than 64 µg/mL in the assay with Candida albicans [1]; greater than 64 µg/mL against Nakaseomyces glabratus; greater than 64 µg/mL with Trichophyton rubrum.
`O=C(Nc1nc2ccc(NC(=O)[C@@H]3CCC[C@H](NCc4ccc5ccccc5c4)C3)cc2s1)C1CCCC1` (racemic): the MIC80 is greater than 64 µg/mL against Nannizzia gypsea; greater than 64 µg/mL in the assay on Candida parapsilosis; greater than 64 µg/mL with Cryptococcus neoformans; 4 µg/mL (≈ 7.59 µM) in the assay with Candida albicans [1]; greater than 64 µg/mL in the assay with Nakaseomyces glabratus; greater than 64 µg/mL in the assay with Trichophyton rubrum.
Take `O=C(Nc1nc2ccc(NC(=O)[C@@H]3CCC[C@H](NCc4ccc5ccccc5n4)C3)cc2s1)C1CCCC1` (relative stereo): the MIC80 in the assay with Nannizzia gypsea, in the assay on Candida parapsilosis, against Cryptococcus neoformans, in the assay on Candida albicans [1], in the assay on Nakaseomyces glabratus and with Trichophyton rubrum was greater than 64 µg/mL each time.
Take `OC(Cn1cncn1)(Cn1cncn1)c1ccc(F)cc1F` [FLUCONAZOLE]: the result in the assay with Candida albicans [2] was Active. Also, the MIC80 came out at 32 µg/mL (≈ 104 µM) in the assay with Nannizzia gypsea; 2 µg/mL (≈ 6.53 µM) in the assay with Candida parapsilosis; 16 µg/mL (≈ 52.2 µM) in the assay on Cryptococcus neoformans; 0.5 µg/mL (≈ 1.63 µM) against Candida albicans [1]; 2 µg/mL (≈ 6.53 µM) with Nakaseomyces glabratus; 4 µg/mL (≈ 13.1 µM) against Trichophyton rubrum.
For `COc1ccc(CN[C@H]2CCC[C@@H](C(=O)Nc3ccc4nc(NC(=O)C5CCCC5)sc4c3)C2)c2ccccc12` (relative stereo), the MIC80 in the assay on Nannizzia gypsea, with Candida parapsilosis, with Cryptococcus neoformans, with Candida albicans [1], against Nakaseomyces glabratus and against Trichophyton rubrum was greater than 64 µg/mL throughout.
Regarding `O=C(Nc1nc2ccc(NC(=O)[C@@H]3CCC[C@H](NCc4cc5ccccc5nc4Cl)C3)cc2s1)C1CCCC1` (relative stereo), the MIC80 in the assay with Nannizzia gypsea, against Candida parapsilosis, against Cryptococcus neoformans, against Candida albicans [1], against Nakaseomyces glabratus and in the assay with Trichophyton rubrum was greater than 64 µg/mL throughout.
As to `O=C(Nc1nc2ccc(NC(=O)[C@@H]3CCC[C@H](NCc4cccc5ccccc45)C3)cc2s1)C1CCCC1` (relative stereo), the MIC80 with Nannizzia gypsea, against Candida parapsilosis, in the assay on Cryptococcus neoformans, against Candida albicans [1], with Nakaseomyces glabratus and with Trichophyton rubrum was greater than 64 µg/mL in each case.
For the compound `O=C(Nc1ccc2nc(NC(=O)[C@@H]3CCC[C@H](NCc4ccc5ncccc5c4)C3)sc2c1)C1CCCC1` (relative stereo), the MIC80 against Nannizzia gypsea is 32 µg/mL (≈ 60.6 µM); against Candida parapsilosis, greater than 64 µg/mL; against Cryptococcus neoformans, greater than 64 µg/mL; in the assay with Candida albicans [1], greater than 64 µg/mL; in the assay on Nakaseomyces glabratus, greater than 64 µg/mL; against Trichophyton rubrum, greater than 64 µg/mL.
As for `O=C(Nc1nc2ccc(NC(=O)[C@@H]3CCC[C@H](NCc4ccc5ccccc5n4)C3)cc2o1)C1CCCC1` (relative stereo), the MIC80 was 1 µg/mL (≈ 1.95 µM) in the assay with Nannizzia gypsea; greater than 64 µg/mL with Candida parapsilosis; greater than 64 µg/mL against Cryptococcus neoformans; greater than 64 µg/mL against Candida albicans [1]; greater than 64 µg/mL in the assay with Nakaseomyces glabratus; greater than 64 µg/mL in the assay with Trichophyton rubrum.
Regarding `O=C(Nc1nc(-c2ccc(NC(=O)[C@H]3CCC[C@@H](NCc4ccc5ccccc5c4)C3)cc2)cs1)C1CCCC1` (relative stereo), the MIC80 is 0.125 µg/mL (≈ 0.226 µM) against Nannizzia gypsea; greater than 64 µg/mL against Candida parapsilosis; greater than 64 µg/mL in the assay on Cryptococcus neoformans; greater than 64 µg/mL against Candida albicans [1]; greater than 64 µg/mL against Nakaseomyces glabratus; 32 µg/mL (≈ 57.9 µM) against Trichophyton rubrum.
For the compound `O=C(Nc1nc2ccc(NC(=O)[C@@H]3CCC[C@H](NCC4CNc5ccccc5C4)C3)cc2s1)C1CCCC1` (relative stereo), the MIC80 was 64 µg/mL (≈ 120 µM) with Nannizzia gypsea; greater than 64 µg/mL with Candida parapsilosis; greater than 64 µg/mL in the assay on Cryptococcus neoformans; 32 µg/mL (≈ 60.2 µM) against Candida albicans [1]; greater than 64 µg/mL in the assay with Nakaseomyces glabratus; greater than 64 µg/mL against Trichophyton rubrum.
For `O=C(Nc1nc2ccc(NC(=O)[C@@H]3CCC[C@H](NCc4ccc5ncccc5c4)C3)cc2s1)C1CCCC1` (relative stereo), the MIC80 was greater than 64 µg/mL against Nannizzia gypsea; 4 µg/mL (≈ 7.58 µM) against Candida parapsilosis; 4 µg/mL (≈ 7.58 µM) in the assay with Cryptococcus neoformans; 4 µg/mL (≈ 7.58 µM) in the assay on Candida albicans [1]; 0.125 µg/mL (≈ 0.237 µM) against Nakaseomyces glabratus; 4 µg/mL (≈ 7.58 µM) with Trichophyton rubrum. In addition, in the assay on Candida albicans [3], the survival at 16 µg/mL amounted to 60%.
Consider `O=C(Nc1nc2ccc(NC(=O)[C@@H]3CCC[C@H](NCc4cnc5ccccc5c4)C3)cc2s1)C1CCCC1`, for which the MIC80 in the assay with Nannizzia gypsea is greater than 64 µg/mL; in the assay with Candida parapsilosis, 8 µg/mL (≈ 15.2 µM); in the assay with Cryptococcus neoformans it was 4 µg/mL (≈ 7.58 µM); in the assay on Candida albicans [1] it was 8 µg/mL (≈ 15.2 µM); with Nakaseomyces glabratus, greater than 64 µg/mL; in the assay on Trichophyton rubrum, 8 µg/mL (≈ 15.2 µM).
